Measurements: ChEMBL document CHEMBL4418300, “Uses of fahd1” (2016)

Biological target: T1, Oxaloacetate tautomerase FAHD1, mitochondrial (Homo sapiens, UniProt Q6P587)
T1 sequence (Q6P587 whole entry): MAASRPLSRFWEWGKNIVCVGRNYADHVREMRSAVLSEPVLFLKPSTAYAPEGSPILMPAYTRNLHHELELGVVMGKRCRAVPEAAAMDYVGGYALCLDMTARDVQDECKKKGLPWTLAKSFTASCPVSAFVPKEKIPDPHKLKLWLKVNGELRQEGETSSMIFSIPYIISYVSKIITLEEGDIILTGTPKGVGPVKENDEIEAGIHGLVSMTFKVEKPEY
Assay: Inhibition of wild-type recombinant N-terminal His6 and S-tagged full-length human FAHD1 expressed in Escherichia coli using oxaloacetate as substrate by photometric analysis

- IC50: 20 µM
SMILES: O=C([O-])C(=O)[O-].[Na+].[Na+] [SODIUM OXALATE]
